The target of the assay is T1, cyclooxygenase-2 (COX-2) (Homo sapiens, UniProt P35354).
T1 construct: human osteosarcoma 143 cells (which specifically express cyclooxygenase-2); endogenous in cells; host or cells: human osteosarcoma 143 cells (whole cells, and microsomes prepared from them)
T1 sequence (P35354 18-604): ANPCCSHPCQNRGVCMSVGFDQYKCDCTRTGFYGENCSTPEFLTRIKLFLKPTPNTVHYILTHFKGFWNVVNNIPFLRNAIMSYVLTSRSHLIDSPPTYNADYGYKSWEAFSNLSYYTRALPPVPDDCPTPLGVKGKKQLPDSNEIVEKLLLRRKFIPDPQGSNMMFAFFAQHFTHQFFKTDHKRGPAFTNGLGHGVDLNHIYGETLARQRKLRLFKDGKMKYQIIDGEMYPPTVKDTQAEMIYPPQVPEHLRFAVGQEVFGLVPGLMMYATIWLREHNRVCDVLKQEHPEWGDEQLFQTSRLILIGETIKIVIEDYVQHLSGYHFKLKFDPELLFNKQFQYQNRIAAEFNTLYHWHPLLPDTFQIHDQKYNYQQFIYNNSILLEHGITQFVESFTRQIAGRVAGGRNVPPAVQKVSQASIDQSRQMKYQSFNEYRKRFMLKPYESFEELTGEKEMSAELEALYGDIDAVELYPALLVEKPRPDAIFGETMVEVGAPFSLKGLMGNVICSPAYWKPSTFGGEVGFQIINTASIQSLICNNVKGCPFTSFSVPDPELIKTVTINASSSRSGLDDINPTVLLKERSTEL
The assay is described as follows: Whole cell cyclooxygenase assay, COX-2 (PGE2 synthesis in response to arachidonic acid, radioimmunoassay), human osteosarcoma 143 cells. The assay is classed as cell-based. The note with it: read-out: Whole Cells COX-2 % inhib.; for inhibition at 0.01 µM: 10 nM; for inhibition at 0.04 µM: 40 nM; for inhibition at 0.16 µM: 160 nM; for inhibition at 0.1 µM: 100 nM; for inhibition at 0.02 µM: 20 nM; for inhibition at 0.005 µM: 5 nM; for inhibition at 0.08 µM: 80 nM. Here is the method: Compounds were tested as inhibitors of cyclooxygenase activity in whole cell and microsomal cyclooxygenase assays. Both of these assays measured prostaglandin E2 (PGE2) synthesis in response to arachidonic acid, using a radioimmunoassay. Cells used for whole cell assays, and from which microsomes were prepared for microsomal assays, were human osteosarcoma 143 cells (which specifically express cyclooxygenase-2) and human U-937 cells (which specifically express cyclooxygenase-1). In these assays, 100% activity is defined as the difference between prostaglandin E2 synthesis in the absence and presence of arachidonate addition.

As to `CSc1ccc(C2=C(c3ccc(S(C)(=O)=O)cc3)COC2=O)cc1` [Example 40, 3-(4-Methylthiophenyl)-4-(4-(methylsulfonyl)phenyl)-2-(5H)-furanone], the inhibition at 0.01 µM was 43%, the inhibition at 0.04 µM worked out at 72% and the inhibition at 0.16 µM is 96%.

Take `CS(=O)(=O)c1ccc(C2=C(c3ccc(F)c(Cl)c3)C(=O)OC2)cc1` [Example 34, 3-(3-Chloro-4-fluorophenyl)-4-(4-(methylsulfonyl)phenyl)-2-(5H)-furanone]: the inhibition at 0.01 µM is 30%, the inhibition at 0.04 µM amounted to 80% and the inhibition at 0.16 µM amounted to 102%.

As to `CC1(C)OC(=O)C(c2ccc(F)cc2)=C1c1ccc(S(C)(=O)=O)cc1` [Example 12, 5,5-Dimethyl-3-(4-fluorophenyl)-4-(4-methylsulfonylphenyl)-2-(5H)-furanone], the inhibition at 0.1 µM is 54%.

As to `CS(=O)(=O)c1ccc(C2=C(c3cc(F)cc(F)c3)C(=O)OC2)cc1` [Example 19, 3-(3,5-Difluorophenyl)-4-(4-(methylsulfonyl)phenyl)-2-(5H)-furanone], the inhibition at 0.04 µM came out at 21% and the inhibition at 0.16 µM is 59%.

For the compound `CS(=O)(=O)c1ccc(C2=C(c3c(Cl)cccc3Cl)C(=O)OC2)cc1` [Example 33, 3-(2,6-Dichlorophenyl)-4-(4-(methylsulfonyl)phenyl)-2-(5H)-furanone], the inhibition at 0.16 µM was found to be 6%.

Turning to `CS(=O)(=O)c1ccc(C2=C(c3ccc(Br)cc3F)C(=O)OC2)cc1` [Example 44, 3-(4-Bromo-2-fluorophenyl)-4-(4-(methylsulfonyl)phenyl)-2-(5H)-furanone], the inhibition at 0.02 µM was found to be 14%, the inhibition at 0.04 µM stood at 55% and the inhibition at 0.16 µM came to 106%.

Consider `CS(=O)(=O)c1ccc(C2=C(c3ccc(F)cc3Br)C(=O)OC2)cc1` [Example 25, 3-(2-Bromo-4-fluorophenyl)-4-(4-(methylsulfonyl)phenyl)-2-(5H)-furanone], for which the inhibition at 0.16 µM amounted to 40%.

`COc1ccc(C2=C(c3ccc(S(C)(=O)=O)cc3)COC2=O)cc1F` [Example 36, 3-(3-Fluoro-4-methoxyphenyl)-4-(4-(methylsulfonyl)phenyl)-2-(5H)-furanone]: the inhibition at 0.01 µM amounted to 11%, the inhibition at 0.04 µM was determined as 50% and the inhibition at 0.16 µM was found to be 89%.

As for `CS(=O)(=O)c1ccc(C2=C(c3cccc(Cl)c3)C(=O)OC2)cc1` [Example 29, 3-(3-Chlorophenyl)-4-(4-(methylsulfonyl)phenyl)-2-(5H)-furanone], the inhibition at 0.02 µM stood at 78% and the inhibition at 0.16 µM came out at 85%.

Take `CS(=O)(=O)c1ccc(C2=C(c3c(F)cccc3F)C(=O)OC2)cc1` [Example 17, 3-(2,6-Difluorophenyl)-4-(4-(methylsulfonyl)phenyl)-2-(5H)-furanone]: the inhibition at 0.04 µM was 41% and the inhibition at 0.16 µM was found to be 77%.

On to `CS(=O)(=O)c1ccc(C2=C(c3ccc(Br)cc3Cl)C(=O)OC2)cc1` [Example 48, 3-(4-Bromo-2-chlorophenyl)-4-(4-(methylsulfonyl)phenyl)-2-(5H)-furanone], for which the inhibition at 0.01 µM came to 7% and the inhibition at 0.16 µM was determined as 47%.

As for `CS(=O)(=O)c1ccc(C2=C(c3cc(F)ccc3F)C(=O)OC2)cc1` [Example 18, 3-(2,5-Difluorophenyl)-4-(4-(methylsulfonyl)phenyl)-2-(5H)-furanone], the inhibition at 0.04 µM amounted to 24% and the inhibition at 0.16 µM came to 58%.

With `CS(=O)(=O)c1ccc(C2=C(c3ccc(Cl)cc3Cl)C(=O)OC2)cc1` [Example 31, 3-(2,4-Dichlorophenyl)-4-(4-(methylsulfonyl)phenyl)-2-(5H)-furanone], the inhibition at 0.02 µM was 49% and the inhibition at 0.16 µM was found to be 87%.

Regarding `CS(=O)(=O)c1ccc(C2=C(c3ccccc3F)C(=O)OC2)cc1` [Example 39, 3-(2-Fluorophenyl)-4-(4-(methylsulfonyl)phenyl)-2-(5H)-furanone], the inhibition at 0.01 µM worked out at 17% and the inhibition at 0.16 µM came out at 84%.

As for `CS(=O)(=O)c1ccc(C2=C(c3ccc(Br)c(Br)c3)C(=O)OC2)cc1` [Example 45, 3-(3,4-Dibromophenyl)-4-(4-(methylsulfonyl)phenyl)-2-(5H)-furanone], the inhibition at 0.01 µM came to 16%, the inhibition at 0.04 µM came to 61% and the inhibition at 0.16 µM is 101%.

`CS(=O)(=O)c1ccc(C2=C(c3c(F)cccc3Cl)C(=O)OC2)cc1` [Example 42, 3-(2-Chloro-6-fluorophenyl)-4-(4-(methylsulfonyl)phenyl)-2-(5H)-furanone]: the inhibition at 0.02 µM turned out to be 10% and the inhibition at 0.16 µM came out at 44%.

Consider `CS(=O)(=O)c1ccc(C2=C(c3ccc(Cl)c(Cl)c3)C(=O)OC2)cc1` [Example 32, 3-(3,4-Dichlorophenyl)-4-(4-(methylsulfonyl)phenyl)-2-(5H)-furanone], for which the inhibition at 0.005 µM turned out to be 43%, the inhibition at 0.01 µM came to 73%, the inhibition at 0.04 µM came to 92% and the inhibition at 0.08 µM was 99%.

In the case of `CS(=O)(=O)c1ccc(C2=C(c3ccc4cccnc4c3)C(=O)OC2)cc1` [Example 50, 3-(7-Quinolinyl)-4-(4-(methylsulfonyl)phenyl)-2-(5H)-furanone], the inhibition at 0.08 µM was 42%.

With `CS(=O)(=O)c1ccc(C2=C(c3ccc(F)c(Br)c3)C(=O)OC2)cc1` [Example 28, 3-(3-Bromo-4-fluorophenyl)-4-(4-(methylsulfonyl)phenyl)-2-(5H)-furanone], the inhibition at 0.02 µM was determined as 48% and the inhibition at 0.16 µM amounted to 69%.

With `CS(=O)(=O)c1ccc(C2=C(c3ccc(F)cc3Cl)C(=O)OC2)cc1` [Example 30, 3-(2-Chloro-4-fluorophenyl)-4-(4-(methylsulfonyl)phenyl)-2-(5H)-furanone], the inhibition at 0.16 µM is 30%.

Regarding `CS(=O)(=O)c1ccc(C2=C(c3ccc(Cl)c(F)c3)C(=O)OC2)cc1` [Example 46, 3-(4-Chloro-3-fluorophenyl)-4-(4-(methylsulfonyl)phenyl)-2-(5H)-furanone], the inhibition at 0.01 µM was 76%, the inhibition at 0.04 µM turned out to be 94% and the inhibition at 0.16 µM came to 97%.

`CS(=O)(=O)c1ccc(C2=C(c3ccccc3Cl)C(=O)OC2)cc1` [Example 24, 3-(2-Chlorophenyl)-4-(4-(methylsulfonyl)phenyl)-2-(5H)-furanone]: the inhibition at 0.04 µM was found to be 43% and the inhibition at 0.16 µM came out at 78%.

Take `CS(=O)(=O)c1ccc(-c2cnsc2-c2ccc(F)cc2)cc1` [Example 8, 4-(4-(Methylsulfonyl)phenyl)-5-(4-fluorophenyl)-isothiazole]: the inhibition at 0.01 µM turned out to be 41% and the inhibition at 0.1 µM worked out at 89%.

For `CS(=O)(=O)c1ccc(C2=C(c3ccc(F)c(F)c3)C(=O)OC2)cc1` [Example 16, 3-(3,4-Difluorophenyl)-4-(4-(methylsulfonyl)phenyl)-2-(5H)-furanone], the inhibition at 0.02 µM was determined as 41%, the inhibition at 0.04 µM is 50% and the inhibition at 0.16 µM was 85%.

Take `CS(=O)(=O)c1ccc(C2=C(c3ccc(F)cc3F)C(=O)OC2)cc1` [Example 15, 3-(2,4-Difluorophenyl)-4-(4-(methylsulfonyl)phenyl)-2-(5H)-furanone]: the inhibition at 0.02 µM was 39%, the inhibition at 0.08 µM was determined as 76% and the inhibition at 0.16 µM was 95%.

On to `COc1ccc(C2=C(c3ccc(S(C)(=O)=O)cc3)COC2=O)cc1` [Example 22, 3-(4-Methoxyphenyl)-4-(4-(methylsulfonyl)phenyl)-2-(5H)-furanone], for which the inhibition at 0.02 µM is 39% and the inhibition at 0.16 µM came out at 98%.

As for `CS(=O)(=O)c1ccc(C2=C(c3ccc(Cl)cc3)C(=O)OC2)cc1` [Example 21, 3-(4-Chlorophenyl)-4-(4-(methylsulfonyl)phenyl)-2-(5H)-furanone], the inhibition at 0.01 µM was determined as 50% and the inhibition at 0.04 µM is 94%.

With `COc1ccc(C2=C(c3ccc(S(C)(=O)=O)cc3)COC2=O)cc1Cl` [Example 37, 3-(3-Chloro-4-methoxyphenyl)-4-(4-(methylsulfonyl)phenyl)-2-(5H)-furanone], the inhibition at 0.01 µM came out at 53%, the inhibition at 0.04 µM is 82% and the inhibition at 0.16 µM amounted to 93%.

Regarding `NS(=O)(=O)c1ccc(C2=C(c3ccc(Cl)c(Cl)c3)C(=O)OC2)cc1` [Example 51, 3-(3 4-Dichlorophenyl)-4-(4-(aminosulfonyl)phenyl)-2-(2H)-furanone], the inhibition at 0.005 µM was determined as 49%, the inhibition at 0.02 µM amounted to 95% and the inhibition at 0.04 µM came to 102%.

The record behind these values is patent publication US5767291A, “Phenyl heterocycles as cox-2 inhibitors” (Merck Frosst Canada, Inc., priority 1996, dated 1998).
